Experimental data: patent US12644094B2, “Serpin production” (SOCIETE DES PRODUITS NESTLE S.A., priority 2019, dated 2026)
Ends that are not written are not given here.

How the values were obtained:
[1] = test system: B. longum strain CNCM I-2618 (NCC 2705); assay: Serpin protein levels (ELISA) in B. longum NCC 2705 grown on different carbohydrates; type: cell-based, Bifidobacterium longum subsp longum
Protocol: B. longum strain CNCM I-2618 (NCC 2705) was grown in Biolector (growth conditions—anaerobic, 37° C.) in MRS+5 mM L-cysteine (MRSc) base without sugar, to which different carbohydrates were added.
(§1) 48-well microtiter plate with pH sensor and dissolved oxygen (DO) sensor were used to culture the strains in Biolector (m2p-labs Aachen, Germany). It was continuously shaken to prevent bacteria aggregation for 24 h and 48 h. Cultures were harvested by centrifugation and supernatant was removed. Pellet was resuspended in PBS supplemented with halt protease inhibitor (Sigma) and lysed using glassbeads. Lysate containing both soluble and insoluble material was then collected. Total protein content was measured using Pierce BCA kit (Thermofisher) and serpin protein concentration was determined using ELISA.
(§2) B. longum NCC 2705 was cultured in Biolector (as described in Example 1) in a base of MRSc without sugar, with the addition of different di-saccharides and tri-saccharides, at concentrations of 0.5 wt % and 1 wt %. Cultures were collected after 48 h of growth and analyzed for total & serpin protein levels (as described in Example 1).
as §2, with “short chain fructo-oligosaccharides (FOS),” for “di-saccharides and tri-saccharides,”, “of” for “of 0.5 wt % and”, “16” for “48”
The FOS used were (i) NutraFlora P95 FOs from Ingredion Inc, USA., a short-chain FOS with Glucose-Fructose (GF) chains with DP from 3 to 5 and comprising GF2, GF3 and GF4 molecules; (ii) Orafti P95 from Beneo, a short-chain FOS with DP from 2 to 8.

[2] = test system: B. longum strain CNCM I-2618 (NCC 2705); assay: Culture density (Optical Density at 600 nm) of B. longum NCC 2705 grown on carbohydrates; type: cell-based, Bifidobacterium longum subsp longum; settings: grown on different carbohydrates for 24 h and 48 h (FIG. 2)
Protocol: as §1, with “B. longum strain CNCM I-2618 (NCC 2705) was grown in Biolector (growth conditions-anaerobic, 37° C.) in MRS+5 mM L-cysteine (MRSc) base without sugar, to which different carbohydrates were added. 48-well” for “48-well”, “[…]-labs” for “(m2p-labs”

[3] = molecular target: T1, transglutaminase 2 (TG2) (Homo sapiens, UniProt P21980); settings: in-vitro, addition of elafin; cited from earlier work
T1 sequence (P21980 1-687): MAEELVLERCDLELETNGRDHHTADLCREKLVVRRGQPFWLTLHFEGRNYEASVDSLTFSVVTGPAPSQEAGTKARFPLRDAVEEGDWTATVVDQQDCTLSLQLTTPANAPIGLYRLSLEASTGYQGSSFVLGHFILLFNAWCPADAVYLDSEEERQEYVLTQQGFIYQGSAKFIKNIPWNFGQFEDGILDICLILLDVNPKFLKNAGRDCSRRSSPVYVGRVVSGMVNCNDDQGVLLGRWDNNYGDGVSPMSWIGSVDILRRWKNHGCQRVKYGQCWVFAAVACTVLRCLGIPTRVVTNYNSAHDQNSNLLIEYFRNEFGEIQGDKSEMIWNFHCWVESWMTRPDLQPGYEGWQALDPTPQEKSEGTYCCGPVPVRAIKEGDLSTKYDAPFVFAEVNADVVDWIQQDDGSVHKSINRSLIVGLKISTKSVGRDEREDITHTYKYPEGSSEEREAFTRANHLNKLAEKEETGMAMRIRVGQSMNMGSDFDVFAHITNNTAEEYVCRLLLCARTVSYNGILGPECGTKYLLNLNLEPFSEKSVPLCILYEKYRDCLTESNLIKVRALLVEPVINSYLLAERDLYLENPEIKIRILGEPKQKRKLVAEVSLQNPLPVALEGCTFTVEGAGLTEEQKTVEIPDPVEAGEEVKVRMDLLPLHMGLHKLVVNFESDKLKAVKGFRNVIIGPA

[4] = test system: various forms of elastases and proteinase; settings: cited from earlier work

## O=C(CO)[C@@H](O)[C@H](O)[C@H](O)CO [fructose, reference compound]
[1]; grown for 48 h on different carbohydrates, compared to all other sugars tested (FIG. 1)
  serpin protein levels: increase B. longum NCC 2705 serpin protein levels
[1]; grown on different carbohydrates for 24 h and 48 h (FIG. 2)
  serpin induction: induce serpin in B. longum NCC 2705 to a higher magnitude than galactose
[2]
  growth (culture density, Optical Density at 600 nm): retarded growth

## OC[C@H]1O[C@H](OC[C@H]2O[C@H](O[C@]3(CO)O[C@H](CO)[C@@H](O)[C@@H]3O)[C@H](O)[C@@H](O)[C@@H]2O)[C@H](O)[C@@H](O)[C@H]1O [raffinose]
[1]; 0.5 wt %, 48 h of growth, MRSc base without sugar (FIG. 3), effect not obtained at 1 wt %
  serpin levels: significant increase in serpin levels

## OC[C@H]1O[C@@](CO)(O[C@H]2O[C@H](CO)[C@@H](O)[C@H](O)[C@H]2O)[C@@H](O)[C@@H]1O [saccharose]
[1]; 1 wt %, 48 h of growth, MRSc base without sugar (FIG. 3)
  serpin production: induce strongly serpin production

## elafin: human serine protease inhibitor (AQEPVKGPVSTKPGSCPIILIRCAMLNPPNRCLKDTDCPGIKKCCEGSCGMACFVPQ; ends and bridges not checked; cysteine pairing not given here; UniProt P19957 61-117, looked up)
[3]
  inhibition of transglutaminase 2 (TG2): moderately inhibits transglutaminase 2 (TG2)
[4]
  inhibitory capacity against elastases and proteinase: potent inhibitory capacity
